System: P12-Ichikawa
Assay: cell viability relative to DMSO control; higher = less cytotoxic
Settings: 48 h
Summary of the method: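 Leukemia cells (NOMO1 or SEM, 500 cells/well; P12-Ichikawa, 1000 cells/well) were seeded in 5 μl in 1536-well plates after at least four passages of adaptation to each medium. They received library compounds in DMSO by pin dosing, 11 threefold points from 47 μM to 0.79 nM. Luminescence with CellTiter-Glo One was read after 48 h at 37°C. Viability is stated per plate relative to DMSO wells, with cell-free wells as background.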

[1] = HPLM + 10% dialyzed FBS, 0.000781 µM
[2] = HPLM + 10% dialyzed FBS, 0.00234 µM
[3] = HPLM + 10% dialyzed FBS, 0.00702 µM
[4] = HPLM + 10% dialyzed FBS, 0.0211 µM
[5] = HPLM + 10% dialyzed FBS, 0.0632 µM
[6] = HPLM + 10% dialyzed FBS, 0.19 µM
[7] = HPLM + 10% dialyzed FBS, 0.569 µM
[8] = HPLM + 10% dialyzed FBS, 1.71 µM
[9] = HPLM + 10% dialyzed FBS, 5.12 µM
[10] = HPLM + 10% dialyzed FBS, 15.4 µM
[11] = HPLM + 10% dialyzed FBS, 46.1 µM
[12] = RPMI 5 mM glucose + 10% FBS, 0.000781 µM
[13] = RPMI 5 mM glucose + 10% FBS, 0.00234 µM
[14] = RPMI 5 mM glucose + 10% FBS, 0.00702 µM
[15] = RPMI 5 mM glucose + 10% FBS, 0.0211 µM
[16] = RPMI 5 mM glucose + 10% FBS, 0.0632 µM
[17] = RPMI 5 mM glucose + 10% FBS, 0.19 µM
[18] = RPMI 5 mM glucose + 10% FBS, 0.569 µM
[19] = RPMI 5 mM glucose + 10% FBS, 1.71 µM
[20] = RPMI 5 mM glucose + 10% FBS, 5.12 µM
[21] = RPMI 5 mM glucose + 10% FBS, 15.4 µM
[22] = RPMI 5 mM glucose + 10% FBS, 46.1 µM
[23] = RPMI 5 mM glucose + 10% dialyzed FBS, 0.000781 µM
[24] = RPMI 5 mM glucose + 10% dialyzed FBS, 0.00234 µM
[25] = RPMI 5 mM glucose + 10% dialyzed FBS, 0.00702 µM
[26] = RPMI 5 mM glucose + 10% dialyzed FBS, 0.0211 µM
[27] = RPMI 5 mM glucose + 10% dialyzed FBS, 0.0632 µM
[28] = RPMI 5 mM glucose + 10% dialyzed FBS, 0.19 µM
[29] = RPMI 5 mM glucose + 10% dialyzed FBS, 0.569 µM
[30] = RPMI 5 mM glucose + 10% dialyzed FBS, 1.71 µM
[31] = RPMI 5 mM glucose + 10% dialyzed FBS, 5.12 µM
[32] = RPMI 5 mM glucose + 10% dialyzed FBS, 15.4 µM
[33] = RPMI 5 mM glucose + 10% dialyzed FBS, 46.1 µM

| SMILES | cell viability [1] [%] | cell viability [2] [%] | cell viability [3] [%] | cell viability [4] [%] | cell viability [5] [%] | cell viability [6] [%] | cell viability [7] [%] | cell viability [8] [%] | cell viability [9] [%] | cell viability [10] [%] | cell viability [11] [%] | cell viability [12] [%] | cell viability [13] [%] | cell viability [14] [%] | cell viability [15] [%] | cell viability [16] [%] | cell viability [17] [%] | cell viability [18] [%] | cell viability [19] [%] | cell viability [20] [%] | cell viability [21] [%] | cell viability [22] [%] | cell viability [23] [%] | cell viability [24] [%] | cell viability [25] [%] | cell viability [26] [%] | cell viability [27] [%] | cell viability [28] [%] | cell viability [29] [%] | cell viability [30] [%] | cell viability [31] [%] | cell viability [32] [%] | cell viability [33] [%] |
| --- | --- | --- | --- | --- | --- | --- | --- | --- | --- | --- | --- | --- | --- | --- | --- | --- | --- | --- | --- | --- | --- | --- | --- | --- | --- | --- | --- | --- | --- | --- | --- | --- | --- |
| COc1cccc2c1C(=O)c1c(O)c3c(c(O)c1C2=O)C[C@@](O)(C(=O)CO)C[C@@H]3O[C@H]1C[C@H](N)[C@H](O[C@H]2CCCCO2)[C@H](C)O1 | 122 | 127 | 123 | 123 | 115 | 125 | 121 | 92.3 | 9.81 | 113 | 99 | 122 | 122 | 120 | 127 | 117 | 122 | 106 | 70.2 | 6.23 | 108 | 94.6 | 125 | 121 | 102 | 128 | 117 | 114 | 97.5 | 71.5 | 7.42 | 93 | 84.7 |
| CCC[S+](=O)([O-])Nc1ccc(F)c(C(=O)c2c[nH]c3ncc(Cl)cc23)c1F | 110 | 116 | 109 | 119 | 112 | 110 | 99.8 | 108 | 103 | 65.7 | 44.2 | 115 | 115 | 121 | 116 | 114 | 115 | 123 | 113 | 113 | 85.6 | 54.7 | 118 | 118 | 119 | 118 | 120 | 115 | 111 | 110 | 99.8 | 72.3 | 44.2 |
| COc1cc([C@@H](CC(=O)O)c2ccc(C)c(CN3C[C@@H](C)Oc4ccccc4[S+]3(=O)[O-])c2)cc2nnn(C)c12 | 108 | 115 | 114 | 110 | 109 | 110 | 115 | 109 | 96.6 | 12.6 | 10.5 | 115 | 114 | 118 | 106 | 126 | 113 | 121 | 111 | 101 | 84 | 67.4 | 114 | 122 | 115 | 125 | 114 | 112 | 116 | 116 | 104 | 94.7 | 70.7 |
| COc1cc([C@@H]2c3cc4c(cc3[C@H](O)[C@H]3COC(=O)[C@@H]23)OCO4)cc(OC)c1OC | 84.1 | 93.9 | 95.1 | 104 | 100 | 77.6 | 30.8 | 14.3 | 8.67 | 5.39 | 4.89 | 94.5 | 95.3 | 96.5 | 95.7 | 98.7 | 83.2 | 34.1 | 20.9 | 8.85 | 5.8 | 4.88 | 86.9 | 95.1 | 101 | 94.3 | 97.6 | 91.2 | 43.9 | 22.7 | 15 | 10.4 | 5.7 |
| O=C(Nc1nnc(-c2ccco2)o1)c1cc(-c2ccccc2)nc2ccccc12 | 113 | 99.3 | 103 | 116 | 113 | 110 | 116 | 109 | 44.4 | 3.09 | 3.16 | 104 | 105 | 115 | 110 | 116 | 113 | 118 | 119 | 117 | 97.8 | 6.52 | 95.7 | 99.8 | 99.2 | 94.2 | 108 | 105 | 100 | 105 | 102 | 93.2 | 7.67 |
| Cc1cn([C@H]2C=C[C@@H](CO)O2)c(=O)[nH]c1=O | 104 | 114 | 108 | 108 | 112 | 103 | 119 | 103 | 115 | 116 | 108 | 100 | 111 | 107 | 108 | 105 | 104 | 112 | 115 | 108 | 110 | 98 | 99.4 | 101 | 110 | 105 | 103 | 101 | 112 | 108 | 99.2 | 107 | 92.8 |
| CCOC(=O)N1c2ccc(C(F)(F)F)cc2[C@@H](N(Cc2cc(C(F)(F)F)cc(C(F)(F)F)c2)C(=O)OC)C[C@H]1CC | 127 | 120 | 116 | 119 | 119 | 114 | 121 | 110 | 116 | 110 | 106 | 131 | 123 | 122 | 132 | 133 | 116 | 127 | 121 | 124 | 103 | 111 | 115 | 128 | 117 | 118 | 120 | 127 | 121 | 114 | 123 | 112 | 104 |
